The values below come from patent publication US11999770B2, “Peptides and nanoparticle formulations thereof” (University of Bradford, priority 2016, dated 2024).

For data set [1], the system named is MDA-MB-231 cells. The data set is described as follows: Cytotoxicity / cell viability (MTT assay). The note with it: for activity against the proliferation of MDA MB-231 triple negative breast cancer cells: dosed as nanoparticles. It counts as cell-based, human. The protocol:
Cytotoxicity of an optimised peptide NP formulation (F18) containing peptide of SEQ ID NO: 5 was measured by assessing cell viability (MTT assay). The MDA-MB-231 cells were seeded in 24-well plates (Nalgen Nunc International, Ochester, NY) at a density of 5×10^4 cells per well and incubated for 24 hours to allow for 60-70% confluency and sufficient adhesion. The cells were treated with different concentrations of the peptide-loaded NP, free peptide (SEQ ID NO: 5) and blank NP. After 24, 48, 72 and 96 hours, the treated cells were washed with 500 μl PBS, and 500 μl of 15% MTT dye solution in complete media added to each well. The plates were incubated at 37° C. and 5% CO2 for an additional 3 hours. The supernatant was then discarded, 500 μl DMSO added and the solution vigorously mixed. The optical density of each well was measured at 570 nm (reference wavelength 630 nm) in a microplate reader (Fluostar Omega, BMG Lab Tech GMBH, Germany). This experiment was performed in triplicate and repeated three times. Mean values±SD for each concentration was determined. Percentage cell viability was determined as the ratio of absorbance (570 nm) in treated cells relative to the absorbance in control cells (570 nm). The absorbance of the untreated cells was set at 100%. The IC50 was defined as the concentration of sample needed to reduce the signal by 50% relative to the control.
For orientation: Tetrazolium assays rely on reduction of a dye to a coloured formazan, in cell work by metabolically active cells.

For the next data set, the system named is A549 lung cancer cells. In words: A549 lung cancer cell viability. Format: cell-based, human. Particulars: dosed as nanoparticles.
In data set [2] the test system is MDA-MB-231 cells. The data set is described as follows: Cell cycle analysis (PI flow cytometry). It counts as cell-based, human. As to the method: To determine the effect of peptide (SEQ ID NO: 5)-loaded NP on cell growth, cultured cells were treated with the same doses of free peptide and peptide-loaded NP as used in the cell viability assay. After 24 and 48 hours of treatment, cells were suspended in PBS and fixed by addition of 70% ice-cold methanol. Cells were treated by adding RNase (1.0 μg ml^−1) to the samples and re-suspending in propidium iodide (PI) stain (5.0 μg ml^−1). PI fluorescence intensity was determined using flow cytometry through a FL-2A filter at 585 nm. Flow-cytometric data were analysed using Cyflogic (v.1.2.1) software. Quantification of apoptotic cells was determined by flow cytometry as the percentage of cells in the sub-G1 region (hypodiploidy) in cell cycle analysis as previously described [PLoS ONE, 6 (2011) e23640].
A general note: A flow cytometer gives signals particle by particle.

A further data set concerns MDA-MB231 invasion. In words: MDA-MB231 invasion. Format: cell-based, human. The note with it: loaded nanoparticles.
The subject of a further data set is MDA-MB231 migration. In words: MDA-MB231 migration. Format: cell-based, human. Particulars: loaded nanoparticles.
Data set [3] has as its target T1, RanGDP-RCC1 protein-protein interaction (Homo sapiens, UniProt P18754).
T1 construct: endogenous in cells; host or cells: MDA MB-231 cell lysate
T1 sequence (P18754 2-421 limits assumed): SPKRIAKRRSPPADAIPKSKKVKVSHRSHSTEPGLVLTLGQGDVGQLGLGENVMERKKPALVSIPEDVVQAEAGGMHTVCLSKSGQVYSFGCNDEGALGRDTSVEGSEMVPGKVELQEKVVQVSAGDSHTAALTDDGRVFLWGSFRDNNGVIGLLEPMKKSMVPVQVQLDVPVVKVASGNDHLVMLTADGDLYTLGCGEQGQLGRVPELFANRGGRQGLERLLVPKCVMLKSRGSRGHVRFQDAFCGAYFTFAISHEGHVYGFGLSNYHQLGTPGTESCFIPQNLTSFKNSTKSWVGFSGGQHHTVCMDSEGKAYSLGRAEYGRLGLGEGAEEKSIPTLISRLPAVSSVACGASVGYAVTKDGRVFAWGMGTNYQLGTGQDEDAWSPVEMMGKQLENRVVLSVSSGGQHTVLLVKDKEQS
The data set is described as follows: Ran activation assay (MDA MB-231 cell lysate, RanBP1 agarose beads). It counts as biochemical. The protocol: Lane 1 is positive control for activated Ran complex & Lane 2, MDA MB-231 cell lysate, Lane 3 MDA MB-231 cell lysate loaded with GDP and incubated (negative control) with RanBP1 Agarose beads. Lane 4, MDA MB-231 cell lysate loaded with GTPyS (positive control) incubated with RanBP1 Agarose beads. Lane 5, MDA MB231 cell lysate treated by N-Terminal peptide, Lane 6, MDA MB-231 cell lysate loaded with GD and treated with N-terminal peptide SEQ ID NO: 5, Lane 7, MDA MB231 cell lysate loaded with GTPyS and treated with N-terminal peptide SEQ ID NO: 5 incubated with RanBP1 Agarose beads. […] It can therefore be seen that the N-terminal peptide SEQ ID NO: 5 disturbs the interaction between Ran-RCC1 by direct binding to RCC1.
In this figure, Lane 1 is positive control (activated Ran protein); Lane 2, MDA MB-231 cell lysate; Lane 3 MDA MB-231 cell lysate loaded with GDP and incubated (negative control) with RanBP1 Agarose beads; Lane 4, MDA MB-231 cell lysate loaded with GTPyS (positive control) incubated with RanBP1 Agarose beads; Lane 5, MDA MB-231 cell lysate treated by peptide of SEQ ID 5; Lane 6, MDA MB-231 cell lysate loaded with GD and treated with peptide of SEQ ID 5; and Lane 7, MDA MB-231 cell lysate loaded with GTPyS and treated with peptide of SEQ ID 5 incubated with RanBP1 Agarose beads.

The target of data set [4] is T2, RanGDP-RCC1 protein-protein interaction (Homo sapiens, UniProt P18754).
T2 sequence (P18754 1-421): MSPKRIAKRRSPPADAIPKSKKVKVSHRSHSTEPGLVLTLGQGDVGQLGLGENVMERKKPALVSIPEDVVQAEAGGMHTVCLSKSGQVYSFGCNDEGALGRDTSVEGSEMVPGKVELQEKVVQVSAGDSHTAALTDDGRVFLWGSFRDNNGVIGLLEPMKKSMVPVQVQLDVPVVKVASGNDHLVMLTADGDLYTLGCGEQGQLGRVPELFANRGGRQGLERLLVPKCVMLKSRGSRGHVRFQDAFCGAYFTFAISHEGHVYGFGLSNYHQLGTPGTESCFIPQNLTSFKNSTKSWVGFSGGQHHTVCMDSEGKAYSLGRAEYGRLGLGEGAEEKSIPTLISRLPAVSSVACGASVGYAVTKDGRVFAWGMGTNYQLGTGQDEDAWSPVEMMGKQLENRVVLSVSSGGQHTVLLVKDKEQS
In words: AlphaScreen assay. Format: binding. The note with it: in the absence of GTP. An excerpt:
The direct effect of the inhibitor of SEQ ID NO: 5 on the RanGDP-RCC1 interaction was also studied by AlphaScreen™ assay. This assay employs bead-based chemistry used to study biomolecular interactions in a microplate format, the acronym ALPHA stands for Amplified Luminescent Proximity Homogeneous Assay. In brief, the system uses two photosensitive bead types, a first donor bead that can absorb light from an external light source and a second acceptor bead that can first absorb energy from the donor bead if the beads are in close proximity and then in turn emit light. The Ran protein was attached to the donor bead and the RCC1 protein was attached to the acceptor bead. In the absence of peptide inhibitor the interaction of Ran and RCC1 hold the beads in close proximity and the emission from the acceptor bead is detectable.

The nature of data set [5]: Isoelectric point of the peptide. It counts as physicochemical.

Consider “CVDIKDRKVKAKS [SEQ ID NO: 6, Ran positions 124 to 135 with N-terminal Cys]”, for which, in the data set on MDA-MB-231 cells [1], the “activity against the proliferation of MDA MB-231 triple negative breast cancer cells” value is “significant activity”. In addition, the “activity against the proliferation of A549 lung cancer cells” value (shortened to “activity … of A549 lung cancer cells”) in the data set with A549 lung cancer cells was “significant activity”.
Turning to “CQYEHDLEVAQTTALP [SEQ ID NO: 7, Ran positions 196 to 210 with N-terminal Cys]”, in the data set on MDA-MB-231 cells [1], the “activity against the proliferation of MDA MB-231 triple negative breast cancer cells” value is reported as “significant activity”. For the same sequence, the “activity … of A549 lung cancer cells” value in the data set with A549 lung cancer cells was “significant activity”.
Regarding CAQGEPQVQFK [SEQ ID NO: 5], the “cytotoxic action (cell viability)” value in the data set on MDA-MB-231 cells [1] (2, 4 and 8 μM, 24, 48, 72 and 96 hours) is “no significant cytotoxicity”. The “activity against the proliferation of MDA MB-231 triple negative breast cancer cells” value in the data set on MDA-MB-231 cells [1] is recorded as “significant activity”. Also, the “growth rate of the cells” value in the data set with MDA-MB-231 cells [2] is reported as “not affected”. In addition, the “activity … of A549 lung cancer cells” value in the data set with A549 lung cancer cells is given as “significant activity”. In addition, the “effect on MDA-MB231 invasion” value in the data set with MDA-MB231 invasion is “inhibitory effect”. In addition, the “effect on MDA-MB231 migration” value in the data set on MDA-MB231 migration is given as “inhibitory effect”. In addition, in data set [3], the “effect on Ran-GDP/RCC1 interaction (activated Ran pull-down)” value was “disturbs the interaction between Ran-GDP and RCC1”. Besides, in data set [4], the “inhibition of complex formation” value came to 45%. The “isoelectric point (pI)” value in data set [5] is listed as “around 6.0”.
